Results as given in BindingDB's records for doi:10.1021/jm021073r (University of Bath, 2003).

Biological target: Kappa-type opioid receptor (Homo sapiens, UniProt P41145)
Experiment: Stimulation of U-69,593 binding at human recombinant Opioid receptor kappa 1 transfected into CHO cells.

Kappa-type opioid receptor, sequence (P41145 whole entry): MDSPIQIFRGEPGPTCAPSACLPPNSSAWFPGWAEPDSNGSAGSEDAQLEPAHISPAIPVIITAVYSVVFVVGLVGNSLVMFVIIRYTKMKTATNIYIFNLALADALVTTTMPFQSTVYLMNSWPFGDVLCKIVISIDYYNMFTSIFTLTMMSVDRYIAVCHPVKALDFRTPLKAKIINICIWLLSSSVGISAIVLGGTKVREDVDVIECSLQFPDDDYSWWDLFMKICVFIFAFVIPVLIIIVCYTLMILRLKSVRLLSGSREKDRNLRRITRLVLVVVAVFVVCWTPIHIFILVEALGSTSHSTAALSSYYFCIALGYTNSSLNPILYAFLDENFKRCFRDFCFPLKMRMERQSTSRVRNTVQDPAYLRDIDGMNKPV

Compound	EC50 [µM]
CCCCCCC(=O)N[C@@]12Cc3c([nH]c4ccccc34)[C@@H]3Oc4c(O)ccc5c4[C@@]31CCN(C)C2C5	0.057
CCN[C@@]12Cc3c([nH]c4ccccc34)[C@@H]3Oc4c(O)ccc5c4[C@@]31CCN(C)C2C5	0.098
CN1CC[C@]23c4c5ccc(O)c4O[C@H]2c2[nH]c4ccccc4c2C[C@@]3(N)C1C5	0.087
CN1CC[C@]23c4c5ccc(O)c4O[C@H]2c2[nH]c4ccccc4c2C[C@@]3(NC(=O)CCc2ccccc2)C1C5	0.0095
